The assay deals with ventricular papillary muscle cell of guinea pig. Nature of the assay: Action potential of the ventricular papillary muscle cell of guinea pig (electrophysiological recording). Type of assay: cell-based. The note with it: screening stage; for percent change in action potential duration at 0.0005 µM / percent change in action potential duration at 0.005 µM / percent change in action potential duration at 0.05 µM: Cavia porcellus, 20 min, read-out: APD, Change rate (%); for Effect on the APD value of the action potential of the papillary muscle (in words): Table 3 summary; for APD, Post-administration: about 20 min perfusion. The procedure:
Method: One guinea pig was taken to violently hit the back of the brain such that it fainted. The common carotid artery was cut off for bleeding to kill the guinea pig. The chest was incised to expose the heart, and the ventricle was cut open along the interventricular septum to expose the lumen of the left ventricle. The papillary muscles were quickly taken out and placed in a Kreb's solution saturated with O2 (mixed gas of 95% O2 and 5% CO2) at 0° C. After the microscopic dressing, the papillary muscle specimen was fixed with a stainless steel needle on the silicone rubber at the bottom of the perfusion bath, and perfused with the oxygen-saturated Kreb's solution. The relevant parameters for perfusion: the temperature was 37±0.5° C., and the flow rate was 4 mL/min.
Cellular action potentials were recorded using a conventional electrophysiological method. The glass electrode filled with 3M KCl saturated solution and having a tip resistance of 15-30 MΩ was fixed on the microelectrode manipulator MP-2. The glass electrode was gently inserted into the superficial layer of the prepared papillary muscle specimen using a microelectrode pusher. The electrode was adjusted to provide the predetermined bioelectrical stimulation with the triple-channel SEN-7203 electronic stimulator and SS-202 J isolator. The bioelectrical signal was amplified by the MEZ-8301 amplifier and then input to the computerized electrophysiological recording and analysis system Powerlab 4/25. Subsequently, the relevant parameters of the action potential for the ventricular papillary muscle were analyzed through the analysis system. The relevant parameters for electrical stimulation: 30 ms latency, 7 ms wavewidth, 1 Hz frequency, 52.1 my stimulation intensity.
In the compound screening test stage, after the ventricular papillary muscle specimen of the guinea pig was fixed, it was first perfused with a normal Kreb's solution for about 85 minutes for stabilization, and the relevant parameters of the cellular action potential before administration were recorded at about 80 min after the start of perfusion. The three-limb tube was used to convert the perfusates containing the title compounds. The title compounds were continuously perfused for about 25 min successively with low (0.0005 μM), medium (0.005 μM), and high (0.05 μM) concentrations, respectively. At about 20 min after the start of drug perfusions at different concentrations, the relevant parameters of the action potentials for the ventricular papillary muscle of guinea pig were observed and recorded, respectively. The normal Kreb's solution was used to perfuse and elute for about 25 min during the intervals between drug perfusions at different concentrations.
The experiment was divided into the following five groups with 6 animals in each group: a vehicle control group, a 369 low dose (0.0005 μM) group, a 369 medium dose (0.005 μM) group, a 369 high dose (0.05 μM) group, and an amiodarone (10 μM) positive control group. After the ventricular papillary muscle specimen of the guinea pig was fixed, it was first perfused with a normal Kreb's solution for about 85 minutes for stabilization, and the relevant parameters of the cellular action potential before administration were recorded at about 80 min after the start of perfusion. According to groups, the three-limb tube was configured to convert the perfusates containing the vehicle, positive control, or Compound 369 at the corresponding concentrations to continuously perfuse for about 25 min. At about 20 min after the start of the perfusions, the relevant parameters of the action potentials for the ventricular papillary muscle of guinea pig were observed and recorded.

Experimental findings from patent US10568892B2, “Cycloartane tetracyclic triterpenoid compound, preparation method therefor and use thereof” (Hefei Cosource Pharmaceuticals Inc., priority 2016, dated 2020) are described below.

The structures appear in SMILES notation.

On to `CN[C@H]1CC[C@]23C[C@]24CC[C@]2(C)C(C(=O)COC(=O)c5ccccc5C(=O)O)=CC[C@@]2(C)[C@@H]4CC[C@H]3C1(C)C.Cl` [Compound 570, (3β,5α)-4,4,14-trimethyl-3-(methylamino)-21-(2-carboxybenzoyloxy)-9,19-cyclopregnan-16-en-20-one hydrochloride], for which the “Effect on the APD value of the action potential of the papillary muscle (in words)” value (shortened to “Effect on the APD value”) is “a certain degree of prolonged effects”. Further, under “0.0005 μM”, the percent change in action potential duration at 0.0005 µM was determined as 12.3% and the “APD, Post-administration” value was found to be 0.0813. Besides, for the setting “0.005 μM”, the percent change in action potential duration at 0.005 µM came to 21.8% and the “APD, Post-administration” value was found to be 0.0850. Under “0.05 μM”, the percent change in action potential duration at 0.05 µM worked out at 30.5% and the “APD, Post-administration” value was found to be 0.928.
In the case of `CN[C@H]1CC[C@]23C[C@]24CC[C@]2(C)C(C(=O)COC(C)=O)=CC[C@@]2(C)[C@@H]4CC[C@H]3C1(C)C` [Compound 427, (3β,5α)-4,4,14-trimethyl-21-acetoxy-3-(methylamino)-9,19-cyclopregnan-16-en-20-one], the “Effect on the APD value” value is “a certain degree of prolonged effects”. In addition, under “0.0005 μM”, the percent change in action potential duration at 0.0005 µM worked out at 18.2% and the “APD, Post-administration” value was found to be 0.0903. For the same molecule, for the setting “0.005 μM”, the percent change in action potential duration at 0.005 µM came to 20.6% and the “APD, Post-administration” value came to 0.0929. In addition, where the note is “0.05 μM”, the percent change in action potential duration at 0.05 µM was 42.9% and the “APD, Post-administration” value turned out to be 0.1073.
As to `CC(=O)C1=CC[C@@]2(C)[C@@H]3CC[C@H]4C(C)(C)[C@@H](N(C)C5CC5)CC[C@@]45C[C@@]35CC[C@]12C` [Compound 409, (3β,5α)-4,4,14-trimethyl-3-(methylcyclopropylamino)-9,19-cyclopregnan-16-en-20-one], under “0.0005 μM”, the percent change in action potential duration at 0.0005 µM worked out at 1.84% and the “APD, Post-administration” value was 0.0773. For the same molecule, under “0.005 μM”, the percent change in action potential duration at 0.005 µM amounted to 3.25% and the “APD, Post-administration” value stood at 0.0762. Under “0.05 μM”, the percent change in action potential duration at 0.05 µM was 6.07% and the “APD, Post-administration” value stood at 0.0786.
In the case of `CN(C)[C@H]1CC[C@]23C[C@]24CC[C@]2(C)C(C(=O)CO)=CC[C@@]2(C)[C@@H]4CC[C@H]3C1(C)C` [Compound 399a, (3β,5α)-4,4,14-trimethyl-21-hydroxy-3-(dimethylamino)-9,19-cyclopregnan-16-en-20-one], the “Effect on the APD value” value is recorded as “a certain degree of prolonged effects”. Moreover, where the note is “0.0005 μM”, the percent change in action potential duration at 0.0005 µM stood at 24.4% and the “APD, Post-administration” value was 0.0960. For the setting “0.005 μM”, the percent change in action potential duration at 0.005 µM amounted to 28.5% and the “APD, Post-administration” value is 0.1010. Further, where the note is “0.05 μM”, the percent change in action potential duration at 0.05 µM came out at 38.4% and the “APD, Post-administration” value came to 0.1103.
As for `CN[C@H]1CC[C@]23C[C@]24CC[C@]2(C)C(/C(C)=N\O)=CC[C@@]2(C)[C@@H]4CC[C@H]3C1(C)C` [Compound 384, (3β,5α)-4,4,14-trimethyl-3-(methylamino)-9,19-cyclopregnan-16-en-20-one oxime], the “Effect on the APD value” value is given as “a certain degree of prolonged effects”. Under “0.0005 μM”, the percent change in action potential duration at 0.0005 µM came to 21.2% and the “APD, Post-administration” value came to 0.0890. Also, under “0.005 μM”, the percent change in action potential duration at 0.005 µM was 38.6% and the “APD, Post-administration” value was determined as 0.0988. In addition, where the note is “0.05 μM”, the percent change in action potential duration at 0.05 µM stood at 41.3% and the “APD, Post-administration” value amounted to 0.1047.
For the molecule `CN[C@H]1CC[C@]23C[C@]24CC[C@]2(C)C(C(C)=O)=C(C)C[C@@]2(C)[C@@H]4CC[C@H]3C1(C)C` [Compound 383a, (3β,5α)-4,4,14,16-tetramethyl-3-(methylamino)-9,19-cyclopregnan-16-en-20-one], the “Effect on the APD value” value is “a certain degree of prolonged effects”. For the same molecule, under “0.0005 μM”, the percent change in action potential duration at 0.0005 µM is 4.02% and the “APD, Post-administration” value stood at 0.0751. Also, where the note is “0.005 μM”, the percent change in action potential duration at 0.005 µM is 33% and the “APD, Post-administration” value was found to be 0.0943. Besides, where the note is “0.05 μM”, the percent change in action potential duration at 0.05 µM came to 30% and the “APD, Post-administration” value came out at 0.0948.
For `CN[C@H]1CC[C@]23C[C@]24CC[C@]2(C)C(C(=O)COC(=O)CCC(=O)O)=CC[C@@]2(C)[C@@H]4CC[C@H]3C1(C)C.Cl` [Compound 522, (3β,5α)-4,4,14-trimethyl-3-(methylamino)-21-(3-carboxypropionyloxy)-9,19-cyclopregnan-16-en-20-one hydrochloride], the “Effect on the APD value” value was “a certain degree of prolonged effects”. In addition, under “0.0005 μM”, the percent change in action potential duration at 0.0005 µM is 2.87% and the “APD, Post-administration” value is recorded as 0.0824. Further, for the setting “0.005 μM”, the percent change in action potential duration at 0.005 µM amounted to 27.2% and the “APD, Post-administration” value came to 0.0996. For the same molecule, for the setting “0.05 μM”, the percent change in action potential duration at 0.05 µM stood at 36% and the “APD, Post-administration” value stood at 0.1102.
`CC(=O)C1=CC[C@@]2(C)[C@@H]3CC[C@H]4C(C)(C)[C@@H](N(C)C)CC[C@@]45C[C@@]35CC[C@]12C` [Compound 383, (3β,5α)-4,4,14-trimethyl-3-(dimethylamino)-9,19-cyclopregnan-16-en-20-one]: the “Effect on the APD value” value was “a certain degree of prolonged effects”. Moreover, where the note is “0.0005 μM”, the percent change in action potential duration at 0.0005 µM worked out at 16.3% and the “APD, Post-administration” value is recorded as 0.0943. For the setting “0.005 μM”, the percent change in action potential duration at 0.005 µM worked out at 29% and the “APD, Post-administration” value is on record as 0.1024.
For `CN[C@H]1CC[C@]23C[C@]24CC[C@]2(C)C(/C(C)=N\OC)=CC[C@@]2(C)[C@@H]4CC[C@H]3C1(C)C` [Compound 398, (3β,5α)-4,4,14-trimethyl-3-(methylamino)-20-methoxyimino-9,19-cyclopregnan-16-ene], for the setting “0.0005 μM”, the percent change in action potential duration at 0.0005 µM is -0.86% and the “APD, Post-administration” value turned out to be 0.0695. Besides, under “0.005 μM”, the percent change in action potential duration at 0.005 µM is 6.63% and the “APD, Post-administration” value is 0.771. Besides, under “0.05 μM”, the percent change in action potential duration at 0.05 µM stood at 9.46% and the “APD, Post-administration” value turned out to be 0.764.
Regarding `CN[C@H]1CC[C@]23C[C@]24CC[C@]2(C)C(C(=O)COC(=O)c5ccccc5)=CC[C@@]2(C)[C@@H]4CC[C@H]3C1(C)C` [Compound 489, (3β,5α)-4,4,14-trimethyl-3-(methylamino)-21-(benzoyloxy)-9,19-cyclopregnan-16-en-20-one], where the note is “0.0005 μM”, the percent change in action potential duration at 0.0005 µM was -2.09% and the “APD, Post-administration” value came to 0.0750. Also, under “0.005 μM”, the percent change in action potential duration at 0.005 µM stood at 1.85% and the “APD, Post-administration” value was determined as 0.0771. For the same molecule, for the setting “0.05 μM”, the percent change in action potential duration at 0.05 µM was found to be 9.63% and the “APD, Post-administration” value was found to be 0.820.
